Test results published in paper PMC9870890 (Nature Communications, 2023).
Like-named read-outs stand apart in the source and are kept apart here.

Biological target: T1, M2R (Homo sapiens, UniProt P08172, M139L/M142L/M1T/M248L/M296L/M368L/M456T/M45L)
T1 construct: We used a full-length construct M2RFL△8 M for complexing with miniGαo and β-arrestin-1; FLAG (N); 8xHis (C); made in house; host or cells: Sf9 insect cells
T1 sequence (P08172 1-466 M1T/M45L/M139L/M142L/M248L/M296L/M368L/M456T): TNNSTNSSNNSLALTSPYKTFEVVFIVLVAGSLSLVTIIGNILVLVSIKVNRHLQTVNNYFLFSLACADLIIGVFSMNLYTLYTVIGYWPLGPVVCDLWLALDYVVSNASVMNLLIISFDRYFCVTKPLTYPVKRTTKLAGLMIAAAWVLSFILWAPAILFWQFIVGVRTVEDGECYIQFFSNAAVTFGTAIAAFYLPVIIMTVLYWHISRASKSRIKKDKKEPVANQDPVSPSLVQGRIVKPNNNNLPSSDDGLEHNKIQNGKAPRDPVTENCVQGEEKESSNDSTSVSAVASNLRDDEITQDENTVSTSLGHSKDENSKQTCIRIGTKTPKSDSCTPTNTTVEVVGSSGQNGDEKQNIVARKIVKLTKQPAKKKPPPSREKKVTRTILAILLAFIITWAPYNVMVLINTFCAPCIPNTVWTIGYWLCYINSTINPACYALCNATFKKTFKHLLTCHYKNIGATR
Assay type: biochemical
Conditions: for Phosphorylation intensity: 100 μM Ixo or 1 mM carbachol
Experimental: We used a full-length construct M2RFL△8 M for complexing with miniGαo and β-arrestin-1. The receptor was purified as described above for cryo-EM sample. Excess GRK2 was mixed with the M2R in a buffer composed of 20 mM HEPES pH 7.5, 100 mM NaCl, 0.01% MNG, 0.003% CHS, 500 μM ATP in the presence and absence of 100 μM Ixo or 1 mM carbachol to initiate the phosphorylation at room temperature. The extent of phosphorylation at various time points (from 0 to 120 min) was evaluated by Pro-Q and Coomassie blue staining. The final phosphorylated receptor (Ixo-bound) was further evaluated by ion-exchange chromatography. The complex formation test was performed as follows: unphosphorylated Ixo-bound M2RFL△8 M or phosphorylated M2RFL△8 M was mixed with miniGαo or β-arrestin-1, respectively and incubated on ice for 30 min. The receptor alone or mixed complex sample were then analyzed by SEC against 20 mM HEPES pH 7.5, 100 mM NaCl, 0.01% MNG, 0.003% CHS in the presence of 10 μM Ixo.

C[N+](C)(C)CC#CCOC1=NOCC1 [Ixo, iperoxo]
Phosphorylation intensity (Time 5 min): 4552.74
Phosphorylation intensity (Time 10 min): 10530.1
Phosphorylation intensity (Time 15 min): 15003.3
Phosphorylation intensity (Time 30 min): 17454.3
Phosphorylation intensity (Time 60 min): 18635.2
Phosphorylation intensity (Time 120 min): 18093.2
induction of GRK2-mediated phosphorylation of M2R (compared with carbachol): more efficient than carbachol
